Source: ChEMBL document CHEMBL2074182, “Influence of antipsychotic, antiemetic, and Ca(2+) channel blocker drugs on the cellular accumulation of the anticancer drug daunorubicin: P-glycoprotein modulation” (J Pharmacol Exp Ther, 2000)
Blank lines part the entries; values can stand above or below the molecule they belong to.

What was measured:
Type in all cases: functional, cell-based
[1] = target: T1, ATP-dependent translocase ABCB1 (Homo sapiens, UniProt P08183); assay: TP_TRANSPORTER: increase in Rhodamine 123 intracellular accumulation (R123: 150 uM, Prochloperazine: 5 ug/mL) in MDR1-expressing NIH3T3 cells; details: mouse
[2] = target: T1, ATP-dependent translocase ABCB1; assay: TP_TRANSPORTER: increase in Rhodamine 123 intracellular accumulation (R123: 150 uM, Chlorpromazine: 2.5 ug/mL) in MDR1-expressing NIH3T3 cells; details: mouse
[3] = target: T2, MDR1 (P-glycoprotein, ABCB1) (Homo sapiens, UniProt P08183); assay: TP_TRANSPORTER: increase in Rhodamine 123 intracellular accumulation (R123: 150 uM, Nicardipine: 2 ug/mL) in MDR1-expressing NIH3T3 cells; details: mouse, probe Rhodamine 123 (150 uM)
[4] = target: T2, MDR1 (P-glycoprotein, ABCB1); assay: TP_TRANSPORTER: increase in Rhodamine 123 intracellular accumulation (R123: 150 uM, Bepridil: 5 ug/mL) in MDR1-expressing NIH3T3 cells; details: mouse, probe Rhodamine 123 (150 uM)
[5] = target: T1, ATP-dependent translocase ABCB1; assay: TP_TRANSPORTER: increase in Rhodamine 123 intracellular accumulation (R123: 150 uM, Promethazine: 20 ug/mL) in MDR1-expressing NIH3T3 cells; details: mouse

T1 sequence (P08183 whole entry): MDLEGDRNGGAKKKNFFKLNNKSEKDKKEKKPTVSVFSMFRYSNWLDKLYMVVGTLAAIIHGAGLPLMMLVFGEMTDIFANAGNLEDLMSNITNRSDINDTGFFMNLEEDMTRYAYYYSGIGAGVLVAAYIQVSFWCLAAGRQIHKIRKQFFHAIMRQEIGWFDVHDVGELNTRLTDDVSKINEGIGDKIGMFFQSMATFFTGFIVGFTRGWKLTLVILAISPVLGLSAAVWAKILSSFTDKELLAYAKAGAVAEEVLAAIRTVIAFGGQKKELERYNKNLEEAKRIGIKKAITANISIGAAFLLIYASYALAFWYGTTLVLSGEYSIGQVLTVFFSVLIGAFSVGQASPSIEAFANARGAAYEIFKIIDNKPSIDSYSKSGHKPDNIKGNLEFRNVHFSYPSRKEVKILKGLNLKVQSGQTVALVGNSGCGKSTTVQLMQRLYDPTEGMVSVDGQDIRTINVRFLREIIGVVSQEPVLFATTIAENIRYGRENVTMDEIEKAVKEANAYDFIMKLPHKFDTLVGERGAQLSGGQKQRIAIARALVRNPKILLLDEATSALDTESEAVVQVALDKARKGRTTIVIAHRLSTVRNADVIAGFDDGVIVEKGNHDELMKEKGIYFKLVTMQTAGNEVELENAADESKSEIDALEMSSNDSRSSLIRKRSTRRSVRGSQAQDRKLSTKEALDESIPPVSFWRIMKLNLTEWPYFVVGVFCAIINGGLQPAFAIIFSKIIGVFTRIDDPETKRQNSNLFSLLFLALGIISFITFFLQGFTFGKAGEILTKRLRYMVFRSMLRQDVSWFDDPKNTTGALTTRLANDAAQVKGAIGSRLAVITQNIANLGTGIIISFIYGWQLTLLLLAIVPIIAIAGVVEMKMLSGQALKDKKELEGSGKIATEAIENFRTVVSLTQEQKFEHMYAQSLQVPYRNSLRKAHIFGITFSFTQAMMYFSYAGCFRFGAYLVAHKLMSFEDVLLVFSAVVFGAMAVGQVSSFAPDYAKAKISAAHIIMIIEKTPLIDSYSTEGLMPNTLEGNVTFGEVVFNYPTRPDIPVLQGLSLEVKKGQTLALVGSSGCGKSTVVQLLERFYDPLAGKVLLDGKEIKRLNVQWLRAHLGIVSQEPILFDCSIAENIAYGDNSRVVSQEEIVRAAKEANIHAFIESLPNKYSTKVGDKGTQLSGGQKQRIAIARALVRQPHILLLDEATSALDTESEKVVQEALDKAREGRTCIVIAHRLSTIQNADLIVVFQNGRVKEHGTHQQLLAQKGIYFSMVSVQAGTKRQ
T2 sequence (P08183 whole entry): as above

SMILES: CN1CCN(CCCN2c3ccccc3Sc3ccc(Cl)cc32)CC1 [PROCHLORPERAZINE]
Inhibition [1]: inhibitor [(at a rough estimate) 80 % inhibition]

SMILES: CCCNC(=O)NS(=O)(=O)c1ccc(Cl)cc1 [CHLORPROPAMIDE]
Inhibition [2]: inhibitor [at a rough estimate 90 % inhibition]

inhibition at 2 ug/mL [3]: 100%
SMILES: COC(=O)C1=C(C)NC(C)=C(C(=O)OCCN(C)Cc2ccccc2)C1c1cccc([N+](=O)[O-])c1 (stereo not given) [NICARDIPINE]

inhibition at 5 ug/mL [4]: 100%
SMILES: CC(C)COCC(CN(Cc1ccccc1)c1ccccc1)N1CCCC1 (stereo not given) [BEPRIDIL]

SMILES: CC(CN1c2ccccc2Sc2ccccc21)N(C)C (stereo not given) [PROMETHAZINE]
Inhibition [5]: inhibitor [(at a rough estimate) 80 % inhibition]
